Consider 13 molecules from US12662479B2 (Foghorn Therapeutics Inc., priority 2020, dated 2026).

The target in one assay is T1, HiBit-BRM fusion protein (Homo sapiens, UniProt P51531).
T1 construct: expressed in transfected cells
Put plainly: HiBiT-BRM cell-based degradation assay (Nano-Glo HiBiT Lytic Detection, 24 h). Particulars: HeLa cells expressing HiBiT-BRM; for DC50: read-out: BRM HiBit Degradation IC50; for BRM HiBit Degradation Maximum measured: top dose 30 μM. An outline of the steps:
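Luminescence from reconstituted NanoBiT luciferase in lysed HeLa HiBiT-BRM cells served as the measure of remaining BRM after 24 h treatment. Compounds were tested from 30 μM final downward in 3-fold steps. DMSO and 2 μM of a standard BRM/BRG1 degrader defined the scale limits.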
On the technique in general: HiBiT is a short tag that completes a luciferase, so light tracks the accessible tagged protein.

In assay [1] the target is T2, HiBit-BRG1 fusion protein (Homo sapiens, UniProt P51532).
T2 construct: expressed in transfected cells
T2 sequence (P51532 whole entry, the tested form may be a part): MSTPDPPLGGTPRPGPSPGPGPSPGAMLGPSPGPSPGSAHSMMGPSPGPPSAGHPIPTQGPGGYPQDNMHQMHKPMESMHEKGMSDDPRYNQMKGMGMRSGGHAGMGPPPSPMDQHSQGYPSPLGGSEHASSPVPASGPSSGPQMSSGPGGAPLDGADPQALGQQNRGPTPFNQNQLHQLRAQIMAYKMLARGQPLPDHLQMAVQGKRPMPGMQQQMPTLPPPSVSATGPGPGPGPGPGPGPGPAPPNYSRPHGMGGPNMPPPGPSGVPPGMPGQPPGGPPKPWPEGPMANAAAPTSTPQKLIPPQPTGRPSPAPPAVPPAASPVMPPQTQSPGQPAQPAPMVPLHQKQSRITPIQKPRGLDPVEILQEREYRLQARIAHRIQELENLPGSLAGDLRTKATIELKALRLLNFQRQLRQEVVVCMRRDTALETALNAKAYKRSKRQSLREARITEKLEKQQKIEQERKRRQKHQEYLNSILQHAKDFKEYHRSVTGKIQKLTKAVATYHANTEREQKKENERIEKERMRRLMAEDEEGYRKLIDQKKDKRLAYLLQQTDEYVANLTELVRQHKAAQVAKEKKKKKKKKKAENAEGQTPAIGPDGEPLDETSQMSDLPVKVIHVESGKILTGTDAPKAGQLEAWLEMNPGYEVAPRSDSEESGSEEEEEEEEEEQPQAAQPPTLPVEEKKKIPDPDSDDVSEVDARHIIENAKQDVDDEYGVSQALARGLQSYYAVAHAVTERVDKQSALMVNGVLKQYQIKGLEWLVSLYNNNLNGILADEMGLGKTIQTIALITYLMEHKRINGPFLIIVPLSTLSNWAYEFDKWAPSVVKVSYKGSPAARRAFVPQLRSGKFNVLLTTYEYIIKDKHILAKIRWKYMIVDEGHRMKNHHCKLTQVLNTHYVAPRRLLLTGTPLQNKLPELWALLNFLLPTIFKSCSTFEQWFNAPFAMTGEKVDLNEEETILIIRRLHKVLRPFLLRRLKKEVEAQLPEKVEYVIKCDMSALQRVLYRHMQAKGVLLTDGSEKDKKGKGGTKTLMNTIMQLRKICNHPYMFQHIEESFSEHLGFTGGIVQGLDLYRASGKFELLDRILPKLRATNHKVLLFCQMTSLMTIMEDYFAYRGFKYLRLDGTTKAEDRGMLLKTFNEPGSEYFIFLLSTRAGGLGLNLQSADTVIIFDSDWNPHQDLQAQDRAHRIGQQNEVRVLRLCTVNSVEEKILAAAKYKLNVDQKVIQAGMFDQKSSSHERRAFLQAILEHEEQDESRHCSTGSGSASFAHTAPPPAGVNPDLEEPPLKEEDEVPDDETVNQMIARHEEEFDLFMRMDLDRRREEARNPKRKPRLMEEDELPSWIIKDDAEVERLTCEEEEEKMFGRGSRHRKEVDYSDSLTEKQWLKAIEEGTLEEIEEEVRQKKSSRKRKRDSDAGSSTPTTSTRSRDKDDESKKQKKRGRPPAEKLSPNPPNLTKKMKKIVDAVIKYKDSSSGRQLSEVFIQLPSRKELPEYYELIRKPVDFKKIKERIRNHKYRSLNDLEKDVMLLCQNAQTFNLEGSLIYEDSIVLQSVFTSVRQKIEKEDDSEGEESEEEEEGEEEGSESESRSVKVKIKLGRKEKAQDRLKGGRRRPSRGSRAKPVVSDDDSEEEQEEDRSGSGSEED
Put plainly: HiBiT-BRG1 cell-based degradation assay (Nano-Glo HiBiT Lytic Detection, 24 h). The settings on record: for Dmax: HeLa, top dose 30 μM, read-out: BRG1 HiBit Degradation Maximum measured. An outline of the steps:
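Stable HeLa line expressing HiBiT-BRG1 and LgBiT, seeded at 5000 cells/well; luminescence read after lytic Nano-Glo HiBiT reagent and 10 min shaking at RT. % degradation normalised between DMSO (high control) and 2 μM reference BRM/BRG1 degrader (low control).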

Where [2] appears, read: HeLa cells expressing HiBit-BRG1 and LgBit, read-out: BRG1 HiBit Degradation IC50.
[3] abbreviates: HeLa cells expressing HiBit-BRG1 and LgBit.

Where a name gives a salt, the structure may show the parent alone. Read-outs that look alike come from different tables or passages of the source. Where only a bound is given, the exact number is not on record here.

T1 sequence (P51531 whole entry, the tested form may be a part): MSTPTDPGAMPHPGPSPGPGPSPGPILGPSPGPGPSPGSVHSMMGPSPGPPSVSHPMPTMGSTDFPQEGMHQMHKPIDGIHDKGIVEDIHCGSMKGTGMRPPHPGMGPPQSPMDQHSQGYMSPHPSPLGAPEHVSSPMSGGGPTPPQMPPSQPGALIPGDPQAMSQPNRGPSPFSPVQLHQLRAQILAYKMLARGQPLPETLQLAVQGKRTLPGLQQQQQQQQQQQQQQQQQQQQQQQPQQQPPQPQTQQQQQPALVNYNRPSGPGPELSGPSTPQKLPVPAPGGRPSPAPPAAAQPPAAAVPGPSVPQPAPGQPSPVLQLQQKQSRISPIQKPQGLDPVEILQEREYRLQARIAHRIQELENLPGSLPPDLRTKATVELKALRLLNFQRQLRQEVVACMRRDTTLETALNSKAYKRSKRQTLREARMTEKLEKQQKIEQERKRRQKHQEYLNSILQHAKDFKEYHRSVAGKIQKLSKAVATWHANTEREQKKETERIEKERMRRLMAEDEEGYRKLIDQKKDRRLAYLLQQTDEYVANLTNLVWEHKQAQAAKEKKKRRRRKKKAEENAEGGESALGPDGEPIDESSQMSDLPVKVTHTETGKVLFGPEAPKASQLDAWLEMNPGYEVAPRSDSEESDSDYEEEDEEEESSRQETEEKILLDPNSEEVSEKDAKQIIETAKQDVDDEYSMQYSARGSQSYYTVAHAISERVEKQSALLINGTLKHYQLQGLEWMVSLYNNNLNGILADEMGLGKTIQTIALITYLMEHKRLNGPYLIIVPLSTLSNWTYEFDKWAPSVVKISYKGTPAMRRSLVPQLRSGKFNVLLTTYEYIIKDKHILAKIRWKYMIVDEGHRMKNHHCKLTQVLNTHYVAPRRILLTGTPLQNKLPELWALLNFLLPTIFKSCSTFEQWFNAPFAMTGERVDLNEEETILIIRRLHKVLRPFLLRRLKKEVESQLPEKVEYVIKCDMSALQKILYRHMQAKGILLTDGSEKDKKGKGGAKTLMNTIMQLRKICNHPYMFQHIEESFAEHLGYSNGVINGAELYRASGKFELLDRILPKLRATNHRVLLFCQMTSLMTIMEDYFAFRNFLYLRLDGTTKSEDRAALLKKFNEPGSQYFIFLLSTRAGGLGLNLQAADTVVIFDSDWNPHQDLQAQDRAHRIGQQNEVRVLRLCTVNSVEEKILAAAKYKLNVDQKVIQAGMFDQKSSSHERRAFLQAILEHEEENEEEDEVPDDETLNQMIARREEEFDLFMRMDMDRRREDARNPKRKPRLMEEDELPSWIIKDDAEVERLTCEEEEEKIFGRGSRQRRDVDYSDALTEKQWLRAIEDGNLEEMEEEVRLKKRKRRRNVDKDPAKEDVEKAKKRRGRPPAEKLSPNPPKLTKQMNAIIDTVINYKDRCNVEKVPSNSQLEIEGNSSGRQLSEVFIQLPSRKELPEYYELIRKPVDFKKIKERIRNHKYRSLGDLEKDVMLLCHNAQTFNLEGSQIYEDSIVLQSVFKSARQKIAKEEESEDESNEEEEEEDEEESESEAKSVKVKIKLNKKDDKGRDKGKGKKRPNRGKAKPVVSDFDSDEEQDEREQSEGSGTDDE

As to `CS(=O)(=O)n1ccc(C(=O)N[C@@H](COCc2ccc(C(=O)N3CC(Oc4ccc5c(c4)C(=O)N(C4CCC(=O)NC4=O)C5=O)C3)cc2)C(=O)Nc2nc(-c3ccccc3)cs2)c1` (stereo partly drawn) [Compound 194, N-((2S)-3-((4-(3-((2-(2,6-dioxopiperidin-3-yl)-1,3-dioxoisoindolin-5-yl)oxy)azetidine-1-carbonyl)benzyl)oxy)-1-oxo-1-((4-phenylthiazol-2-yl)amino)propan-2-yl)-1-(methylsulfonyl)-1H-pyrrole-3-carboxamide], on HiBit-BRM fusion protein, the DC50 is above 10 µM and the “BRM HiBit Degradation Maximum measured” value is “C (‘C’ = Maximum degradation <50%)”. For the same molecule, in assay [1] (setting [2]), the DC50 was above 10 µM. Also, the Dmax in assay [1] (setting [3]) is below 50%.

`CS(=O)(=O)n1ccc(C(=O)N[C@@H](COCc2ccc(C(=O)N3CCC(CCCCN4CCN(c5ccc6c(c5)C(=O)N(C5CCC(=O)NC5=O)C6=O)CC4)CC3)cc2)C(=O)Nc2nc(-c3ccccc3)cs2)c1` (stereo partly drawn) [Compound 195, N-((2S)-3-((4-(4-(4-(4-(2-(2,6-dioxopiperidin-3-yl)-1,3-dioxoisoindolin-5-yl)piperazin-1-yl)butyl)piperidine-1-carbonyl)benzyl)oxy)-1-oxo-1-((4-phenylthiazol-2-yl)amino)propan-2-yl)-1-(methylsulfonyl)-1H-pyrrole-3-carboxamide formate]: on HiBit-BRM fusion protein, the DC50 is above 10 µM and the “BRM HiBit Degradation Maximum measured” value is reported as “C (‘C’ = Maximum degradation <50%)”. In addition, the DC50 in assay [1] (setting [2]) is above 10 µM. The Dmax in assay [1] (setting [3]) is below 50%.

In the case of `CS(=O)(=O)n1ccc(C(=O)N[C@@H](COCc2ccc(C(=O)NCCOCCOCCNC(=O)COc3cccc4c3C(=O)N(C3CCC(=O)NC3=O)C4=O)cc2)C(=O)Nc2nc(-c3ccccc3)cs2)c1` (stereo partly drawn) [Compound 196], on HiBit-BRM fusion protein, the DC50 is above 10 µM and the “BRM HiBit Degradation Maximum measured” value is reported as “C (‘C’ = Maximum degradation <50%)”. The DC50 in assay [1] (setting [2]) is above 10 µM. The Dmax in assay [1] (setting [3]) was below 50%.

For the molecule `CS(=O)(=O)n1ccc(C(=O)N[C@@H](COCc2ccc(C(=O)N3CC(COc4cccc5c4C(=O)N(C4CCC(=O)NC4=O)C5=O)C3)cc2)C(=O)Nc2nc(-c3ccccc3)cs2)c1` (stereo partly drawn) [Compound 197, (2S)-3-([4-[3-([[2-(2,6-dioxopiperidin-3-yl)-1,3-dioxoisoindol-4-yl]oxy]methyl)azetidine-1-carbonyl]phenyl]methoxy)-2-[(1-methanesulfonylpyrrol-3-yl)formamido]-N-(4-phenyl-1,3-thiazol-2-yl)propanamide], the DC50 (at HiBit-BRM fusion protein; in assay [1] (setting [2])) was above 10 µM in each case. For the same molecule, at HiBit-BRM fusion protein, the “BRM HiBit Degradation Maximum measured” value is recorded as “C (‘C’ = Maximum degradation <50%)”. Also, the Dmax in assay [1] (setting [3]) is below 50%.

On to `CS(=O)(=O)n1ccc(C(=O)N[C@@H](COCc2ccc(C(=O)N3CC(COc4ccc5c(c4)C(=O)N(C4CCC(=O)NC4=O)C5=O)C3)cc2)C(=O)Nc2nc(-c3ccccc3)cs2)c1` (stereo partly drawn) [Compound 198, (2S)-3-([4-[3-([[2-(2,6-dioxopiperidin-3-yl)-1,3-dioxoisoindol-5-yl]oxy]methyl)azetidine-1-carbonyl]phenyl]methoxy)-2-[(1-methanesulfonylpyrrol-3-yl)formamido]-N-(4-phenyl-1,3-thiazol-2-yl)propanamide], for which the DC50 is above 10 µM at HiBit-BRM fusion protein; above 10 µM in assay [1] (read-out: BRG1 HiBit Degradation IC50, HeLa cells expressing HiBit-BRG1 and LgBit). In addition, at HiBit-BRM fusion protein, the “BRM HiBit Degradation Maximum measured” value is “C (‘C’ = Maximum degradation <50%)”.

As for `CS(=O)(=O)n1ccc(C(=O)N[C@@H](COCc2ccc(C(=O)N3CCC4(CC3)CC(Oc3ccc5c(c3)C(=O)N(C3CCC(=O)NC3=O)C5=O)C4)cc2)C(=O)Nc2nc(-c3ccccc3)cs2)c1` (stereo partly drawn) [Compound 199, (2S)-3-[[4-(2-[[2-(2,6-dioxopiperidin-3-yl)-1,3-dioxoisoindol-5-yl]oxy]-7-azaspiro[3.5]nonane-7-carbonyl)phenyl]methoxy]-2-[(1-methanesulfonylpyrrol-3-yl)formamido]-N-(4-phenyl-1,3-thiazol-2-yl)propanamide], at HiBit-BRM fusion protein, the DC50 was above 10 µM and the “BRM HiBit Degradation Maximum measured” value was “C (‘C’ = Maximum degradation <50%)”. In assay [1] (setting [2]), the DC50 was above 10 µM. Besides, the Dmax in assay [1] (setting [3]) is below 50%.

For `CS(=O)(=O)n1ccc(C(=O)N[C@@H](COCc2ccc(C(=O)NCCOc3ccc4c(c3)C(=O)N(C3CCC(=O)NC3=O)C4=O)cc2)C(=O)Nc2nc(-c3ccccc3)cs2)c1` (stereo partly drawn) [Compound 200, N-(2-[[2-(2,6-dioxopiperidin-3-yl)-1,3-dioxoisoindol-5-yl]oxy]ethyl)-4-[[(2S)-2-[(1-methanesulfonylpyrrol-3-yl)formamido]-2-[(4-phenyl-1,3-thiazol-2-yl)carbamoyl]ethoxy]methyl]benzamide], at HiBit-BRM fusion protein, the DC50 was above 10 µM and the “BRM HiBit Degradation Maximum measured” value was “C (‘C’ = Maximum degradation <50%)”. Moreover, the DC50 in assay [1] (setting [2]) was above 10 µM. The Dmax in assay [1] (setting [3]) was below 50%.

For the molecule `CS(=O)(=O)n1ccc(C(=O)N[C@@H](COCc2ccc(C(=O)NCCCCCCNc3ccc4c(c3)C(=O)N(C3CCC(=O)NC3=O)C4=O)cc2)C(=O)Nc2nc(-c3ccccc3)cs2)c1` (stereo partly drawn) [Compound 201, N-(6-[[2-(2,6-dioxopiperidin-3-yl)-1,3-dioxoisoindol-5-yl]amino]hexyl)-4-[[(2S)-2-[(1-methanesulfonylpyrrol-3-yl)formamido]-2-[(4-phenyl-1,3-thiazol-2-yl)carbamoyl]ethoxy]methyl]benzamide], at HiBit-BRM fusion protein, the DC50 was 0.1 to 1 µM and the “BRM HiBit Degradation Maximum measured” value was “A (‘A’ = Maximum degradation >75%)”. In addition, the DC50 in assay [1] (setting [2]) was below 0.1 µM. Besides, the Dmax in assay [1] (setting [3]) is above 75%.

On to `CS(=O)(=O)n1ccc(C(=O)N[C@@H](COCc2ccc(C(=O)NCCOCCOCCOCCNC(=O)COc3ccc4c(c3)C(=O)N(C3CCC(=O)NC3=O)C4=O)cc2)C(=O)Nc2nc(-c3ccccc3)cs2)c1` (stereo partly drawn) [Compound 202, (2S)-3-[(4-[[2-(2-[2-[2-(2-[[2-(2,6-dioxopiperidin-3-yl)-1,3-dioxoisoindol-5-yl]oxy]acetamido)ethoxy]ethoxy]ethoxy)ethyl]carbamoyl]phenyl)methoxy]-2-[(1-methanesulfonylpyrrol-3-yl)formamido]-N-(4-phenyl-1,3-thiazol-2-yl)propanamide], for which the DC50 (at HiBit-BRM fusion protein; in assay [1] (setting [2])) was above 10 µM each time. For the same molecule, on HiBit-BRM fusion protein, the “BRM HiBit Degradation Maximum measured” value is given as “C (‘C’ = Maximum degradation <50%)”. Moreover, in assay [1] (setting [3]), the Dmax is below 50%.

As to `CS(=O)(=O)n1ccc(C(=O)N[C@@H](COCc2ccc(C(=O)NCCOCCOCCNC(=O)COc3ccc4c(c3)C(=O)N(C3CCC(=O)NC3=O)C4=O)cc2)C(=O)Nc2nc(-c3ccccc3)cs2)c1` (stereo partly drawn) [Compound 203, (2S)-3-([4-[(2-[2-[2-(2-[[2-(2,6-dioxopiperidin-3-yl)-1,3-dioxoisoindol-5-yl]oxy]acetamido)ethoxy]ethoxy]ethyl)carbamoyl]phenyl]methoxy)-2-[(1-methanesulfonylpyrrol-3-yl)formamido]-N-(4-phenyl-1,3-thiazol-2-yl)propanamide], on HiBit-BRM fusion protein, the DC50 was above 10 µM and the “BRM HiBit Degradation Maximum measured” value is on record as “C (‘C’ = Maximum degradation <50%)”. Moreover, in assay [1] (setting [2]), the DC50 is above 10 µM. In assay [1] (setting [3]), the Dmax is below 50%.

Turning to `CS(=O)(=O)n1ccc(C(=O)N[C@@H](COCc2ccc(C(=O)NCCCC#Cc3ccc4c(c3)C(=O)N(C3CCC(=O)NC3=O)C4=O)cc2)C(=O)Nc2nc(-c3ccccc3)cs2)c1` (stereo partly drawn) [Compound 204, N-[5-[2-(2,6-dioxopiperidin-3-yl)-1,3-dioxoisoindol-5-yl]pent-4-yn-1-yl]-4-[[(2S)-2-[(1-methanesulfonylpyrrol-3-yl)formamido]-2-[(4-phenyl-1,3-thiazol-2-yl)carbamoyl]ethoxy]methyl]benzamide], on HiBit-BRM fusion protein, the DC50 was above 10 µM and the “BRM HiBit Degradation Maximum measured” value is recorded as “C (‘C’ = Maximum degradation <50%)”. In addition, the DC50 in assay [1] (setting [2]) lay in the range of 0.1 to 1 µM. Further, the Dmax in assay [1] (setting [3]) was 50 to 75%.

Consider `CS(=O)(=O)n1ccc(C(=O)N[C@@H](COCc2ccc(C(=O)NCCCC#Cc3cccc4c3C(=O)N(C3CCC(=O)NC3=O)C4=O)cc2)C(=O)Nc2nc(-c3ccccc3)cs2)c1` (stereo partly drawn) [Compound 205, N-[5-[2-(2,6-dioxopiperidin-3-yl)-1,3-dioxoisoindol-4-yl]pent-4-yn-1-yl]-4-[[(2S)-2-[(1-methanesulfonylpyrrol-3-yl)formamido]-2-[(4-phenyl-1,3-thiazol-2-yl)carbamoyl]ethoxy]methyl]benzamide], for which, on HiBit-BRM fusion protein, the DC50 is above 10 µM and the “BRM HiBit Degradation Maximum measured” value is on record as “C (‘C’ = Maximum degradation <50%)”. Besides, the DC50 in assay [1] (setting [2]) was above 10 µM. For the same molecule, the Dmax in assay [1] (setting [3]) was below 50%.

As for `CS(=O)(=O)n1ccc(C(=O)N[C@@H](COCc2ccc(C(=O)NCCOc3cccc(OCCNc4cccc5c4C(=O)N(C4CCC(=O)NC4=O)C5=O)c3)cc2)C(=O)Nc2nc(-c3ccccc3)cs2)c1` (stereo partly drawn) [Compound 206, N-[2-[3-(2-[[2-(2,6-dioxopiperidin-3-yl)-1,3-dioxoisoindol-4-yl]amino]ethoxy)phenoxy]ethyl]-4-[[(2S)-2-[(1-methanesulfonylpyrrol-3-yl)formamido]-2-[(4-phenyl-1,3-thiazol-2-yl)carbamoyl]ethoxy]methyl]benzamide], on HiBit-BRM fusion protein, the DC50 is above 10 µM and the “BRM HiBit Degradation Maximum measured” value is given as “C (‘C’ = Maximum degradation <50%)”. The DC50 in assay [1] (setting [2]) was above 10 µM. Also, in assay [1] (setting [3]), the Dmax is below 50%.
